The target in assay [1] is T1, D(3) dopamine receptor (Homo sapiens, UniProt P35462).
Description: Tested for the ability to displace [125I]iodosulpiride from human cloned Dopamine receptor D3, expressed in CHO cells
Assay [2] has as its target T1, D(3) dopamine receptor. Briefly: Tested for the functional activity in vitro using microphysiometry at Dopamine receptor D3; antagonist. The settings on record: filed as antagonist.
Assay [3] deals with T2, D(2) dopamine receptor (Homo sapiens, UniProt P14416). Briefly: Tested for the ability to displace [125I]iodosulpiride from human cloned Dopamine receptor D2, expressed in CHO cells. It counts as cell-based.
The target in assay [4] is T1, D(3) dopamine receptor. Briefly: Functional activity in vitro using microphysiometry at Dopamine receptor D3; Agonist. The settings on record: filed as agonist.
Assay [5] deals with T2, D(2) dopamine receptor. Put plainly: Displacement of [125I]iodosulpiride from human Dopamine receptor D2 expressed in CHO cells. It counts as cell-based.

The structures appear in SMILES notation.

T2 sequence (P14416 whole entry): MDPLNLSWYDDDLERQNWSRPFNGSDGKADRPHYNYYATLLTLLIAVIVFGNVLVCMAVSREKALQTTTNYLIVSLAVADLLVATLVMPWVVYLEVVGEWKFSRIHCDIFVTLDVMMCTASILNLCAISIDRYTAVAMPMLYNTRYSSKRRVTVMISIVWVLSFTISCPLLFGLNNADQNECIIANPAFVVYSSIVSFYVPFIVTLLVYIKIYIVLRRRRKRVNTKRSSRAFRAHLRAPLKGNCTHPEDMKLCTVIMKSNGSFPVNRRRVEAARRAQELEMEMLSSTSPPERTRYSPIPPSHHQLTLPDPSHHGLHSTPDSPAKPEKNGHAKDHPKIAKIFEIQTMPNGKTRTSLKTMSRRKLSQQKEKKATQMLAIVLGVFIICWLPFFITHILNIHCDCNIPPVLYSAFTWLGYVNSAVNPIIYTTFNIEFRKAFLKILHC
T1 sequence (P35462 whole entry): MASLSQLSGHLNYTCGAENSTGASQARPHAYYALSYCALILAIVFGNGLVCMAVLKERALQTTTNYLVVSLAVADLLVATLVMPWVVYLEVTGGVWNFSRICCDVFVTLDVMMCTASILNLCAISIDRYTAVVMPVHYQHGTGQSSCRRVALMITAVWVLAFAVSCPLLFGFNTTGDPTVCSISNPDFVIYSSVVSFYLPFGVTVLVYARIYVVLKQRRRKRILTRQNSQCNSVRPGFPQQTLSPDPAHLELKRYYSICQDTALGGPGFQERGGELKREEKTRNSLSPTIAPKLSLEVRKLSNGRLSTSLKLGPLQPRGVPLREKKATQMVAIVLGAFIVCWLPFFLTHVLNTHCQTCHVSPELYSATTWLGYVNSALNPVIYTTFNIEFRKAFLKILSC

On to `CCCN(CCCCNC(=O)c1ccc(-c2ccccc2)cc1)C1CCc2nc(SC)ncc2C1` (stereo not given), for which the Ki (commonly the equilibrium dissociation constant of an inhibitor or competing ligand from its target) on D(3) dopamine receptor [1] is 15.8 nM; on D(2) dopamine receptor [3] it was 1260 nM. For the same molecule, the Function result on D(3) dopamine receptor [2] is “Antagonist”.

On to `CCCN(CCCCNC(=O)c1ccc(-c2ccccc2)cc1)C1CCc2nc(C)ncc2C1` (stereo not given), for which the Function result at D(3) dopamine receptor [4] is “Agonist”. In addition, the Ki on D(3) dopamine receptor [1] was 7.94 nM; at D(2) dopamine receptor [3], 2510 nM.

Take `CCCN(CCCCNC(=O)c1ccc(-c2ccccc2)cc1)C1CCc2nc(C(C)(C)C)ncc2C1` (stereo not given): the inhibition constant Ki on D(3) dopamine receptor [1] was 12.6 nM; on D(2) dopamine receptor [3], 1580 nM. Also, the Function entry at D(3) dopamine receptor [2] was “Antagonist”.

Turning to `CCCN(CCCCNC(=O)c1ccc(-c2ccccc2)cc1)C1CCc2nc(N)sc2C1` (stereo not given), at D(3) dopamine receptor [4], the Function result was “Agonist”. Also, the Ki is 0.501 nM at D(3) dopamine receptor [1] and 200 nM at D(2) dopamine receptor [3].

`CCCN(CCCCNC(=O)c1ccc(-c2ccccc2)cc1)C1CCc2ncnc(OC)c2C1` (stereo not given): the Function result at D(3) dopamine receptor [4] is “Agonist”. The Ki is 3.16 nM at D(3) dopamine receptor [1] and 1580 nM at D(2) dopamine receptor [3].

`CCCN(CCCCNC(=O)c1ccc(-c2ccccc2)cc1)C1CCc2nc(N(C)C)ncc2C1` (stereo not given): the figures for the inhibition constant Ki at D(3) dopamine receptor [1] and at D(2) dopamine receptor [3] were 25.1 nM and 1580 nM, respectively. Also, at D(3) dopamine receptor [2], the Function entry is “Antagonist”.

`CCCN1COC[C@@H]2c3cc(O)ccc3OC[C@H]21`: the inhibition constant Ki on D(3) dopamine receptor [1] was 25.1 nM; on D(2) dopamine receptor [5] it was 2510 nM.

At D(3) dopamine receptor [1], `CCCNC1CCc2nc(N)sc2C1` (stereo not given) had a Ki of 10 nM.

With `CCCN(CCCCNC(=O)c1ccc(-c2ccccc2)cc1)C1CCc2ncncc2C1` (stereo not given), the Ki was 126 nM at D(3) dopamine receptor [1] and 1260 nM on D(2) dopamine receptor [3].

Consider `CCCN(CCCCNC(=O)c1ccc(-c2ccccc2)cc1)C1CCc2nc(NC)ncc2C1` (stereo not given), for which the Function entry on D(3) dopamine receptor [4] is “Agonist”. The results for the Ki at D(3) dopamine receptor [1] and at D(2) dopamine receptor [3] were 15.8 nM and 2510 nM, respectively.

Consider `CN(CCCCNC(=O)c1ccc(-c2ccccc2)cc1)C1CCc2nc(N)ncc2C1` (stereo not given), for which the Function entry at D(3) dopamine receptor [4] is “Agonist”. The Ki was 10 nM at D(3) dopamine receptor [1] and 1580 nM on D(2) dopamine receptor [3].

On to `CCCN(CCCCNC(=O)c1ccc(-c2ccccc2)cc1)C1CCc2n[nH]cc2C1` (stereo not given), for which, on D(3) dopamine receptor [4], the Function entry was “Agonist”. Moreover, the figures for the Ki on D(3) dopamine receptor [1] and at D(2) dopamine receptor [3] were 3.16 nM and 501 nM, respectively.

Regarding `CCCN(CCCCNC(=O)c1ccc(-c2ccccc2)cc1)C1CCc2nc(N)ncc2C1` (stereo not given), on D(3) dopamine receptor [4], the Function entry is “Agonist”. In addition, the inhibition constant (Ki) at D(3) dopamine receptor [1] is 0.794 nM; at D(2) dopamine receptor [3], 158 nM.

Values taken from ChEMBL document CHEMBL1131981, “Heterocyclic analogues of 2-aminotetralins with high affinity and selectivity for the dopamine D3 receptor” (Bioorg Med Chem Lett, 1999).
